Target: Spermine oxidase (Homo sapiens, UniProt Q9NWM0)
Test: Enzyme Inhibition Assay
Settings: pH 8.3; 25 °C
Experimental: SMO activity was assayed at pH 8.3 (0.1 M Tris-HCl buffer) and 25°C using Spm as the substrate in the presence and absence of CHX.

Sequence of Spermine oxidase (Q9NWM0 whole entry): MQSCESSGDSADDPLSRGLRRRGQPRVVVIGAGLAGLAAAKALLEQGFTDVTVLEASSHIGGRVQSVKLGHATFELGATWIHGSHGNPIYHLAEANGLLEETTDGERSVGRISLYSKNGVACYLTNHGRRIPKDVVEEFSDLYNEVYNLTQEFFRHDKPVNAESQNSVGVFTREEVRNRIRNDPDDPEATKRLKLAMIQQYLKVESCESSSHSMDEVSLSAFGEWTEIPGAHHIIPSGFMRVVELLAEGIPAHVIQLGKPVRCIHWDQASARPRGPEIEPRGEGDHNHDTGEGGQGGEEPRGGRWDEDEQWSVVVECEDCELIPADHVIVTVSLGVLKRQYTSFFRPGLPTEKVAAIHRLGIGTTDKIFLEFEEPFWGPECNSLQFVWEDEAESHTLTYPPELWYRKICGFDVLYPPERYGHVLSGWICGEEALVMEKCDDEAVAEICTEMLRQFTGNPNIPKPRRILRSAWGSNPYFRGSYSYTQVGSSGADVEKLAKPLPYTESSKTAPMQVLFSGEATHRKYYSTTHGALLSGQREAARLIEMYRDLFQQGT

With `[H]/N=C(\N/C(=N/[H])NCCCCCCNC(=N)NC(=N)Nc1ccc(Cl)cc1)Nc1ccc(Cl)cc1` [Chlorhexidine (1)] the Ki was 550 nM.
